Source: patent US11896593B2, “Sulfamate derivative compounds for use in treating or alleviating a psychiatric disorder” (Bio-Pharm Solutions Co., Ltd., priority 2020, dated 2024)

test system: ICR male mice; assay: Forced swim test (mouse, mFST); type: in vivo; conditions: po; mouse forced swim test, 30 mg/kg, 1 hr; read-out: mFST protection % at administration dose
Procedure: In order to determine the anti-depressant effect in rodents, the forced swim test was performed with rats and mice. The forced swim test causes an immobile state by forcing an animal to swim in a confined space. It reflects a state of despair giving up evading such a circumstance. ICR male mice (25 g to 30 g) and Wistar male rats (240 g to 260 g) were purchased from Samtako Bio Korea Co. (Korea) and allowed to acclimatize for 1 week before being tested in a controlled animal facility (temperature 22±2° C., humidity 55±5%). The test compound was dissolved in 20% Tween80 and administered orally 60 minutes before testing. The control group was provided with a corresponding vehicle. […] 15 minutes of forced swimming was performed a day before the experiment. On the day of the experiment, the animal was placed in the cylinder 60 minutes after the administration of the compound and was videotaped for 6 minutes. In the recorded videos, time during which the animal placed its head on the water and remained still without movement was measured based on the remaining 4 minutes excluding the first 2 minutes. It was evaluated that the lower the value of the immobile posture time, the greater the anti-depressant action (Reference; Porsolt R D, Le Pichon M. Jalfre M. 1997. Depression: a new animal model sensitive to antidepressant treatments. Nature. April 21; 266(5604):730-2.).
The result was shown as the standard error of measurement (SEM) of mean value t mean value. Behavioral data were analyzed by one-way ANOVA. For statistical significance, a value of <0.05 was taken (***p<0.001, **p=0.001˜0.01, *p=0.01˜0.05). Data management and statistics were performed using the Prism software of Windows version 4 (GraphPad Softward Co., San Diego, CA, USA).
Based on the results of Table 7, the ED50 value of the compound of Example 2 was calculated and shown in Table 7, and after 30 mg/kg and 60 mg/kg of the compounds of the other remaining examples were administered based on TD50 values to perform the forced swim tests, respectively, the administration doses with protected efficacy and protection % at the corresponding administration doses were shown in Table 7.

Row | Structure (SMILES) | inhibition in vivo at 30 mg/kg [%]
1 | NS(=O)(=O)OCC[C@@H]1OC2(CCCC2)O[C@H]1c1ccccc1Cl [Example 158, 2-((2S,3S)-3-(2-chlorophenyl)-1,4-dioxaspiro[4,4]nonan-2-yl)ethyl sulfamate] | 51.6
2 | Cc1ccccc1[C@@H]1OC(C)(C)O[C@H]1COS(N)(=O)=O [Example 92, ((4S,5S)-5-(2-methylphenyl)-2,2-dimethyl-1,3-dioxolan-4-yl)methyl sulfamate] | 47
3 | NS(=O)(=O)OCC[C@@H]1OC2(CCCC2)O[C@H]1c1ccccc1 [Example 134, 2-((2S,3S)-3-phenyl-1,4-dioxaspiro[4,4]nonan-2-yl)ethyl sulfamate] | 63
4 | NS(=O)(=O)OC[C@H]1OC2(CCCC2)O[C@@H]1c1c(Cl)cccc1Cl [Example 57, ((2R,3R)-3-(2,6-dichlorophenyl)-1,4-dioxaspiro[4,4]nonan-2-yl)methyl sulfamate] | 61.6
5 | CC1(C)O[C@@H](CCOS(N)(=O)=O)[C@H](c2ccccc2)O1 [Example 130, 2-((4S,5S)-5-phenyl-2,2-dimethyl-1,3-dioxolan-4-yl)ethyl sulfamate] | 57.5
6 | CC1(C)O[C@@H](COS(N)(=O)=O)[C@H](c2ccc(Cl)cc2Cl)O1 [Example 40, ((4S,5S)-5-(2,4-dichlorophenyl)-2,2-dimethyl-1,3-dioxolan-4-yl)methyl sulfamate] | 64.2
7 | CC1(C)O[C@@H](COS(N)(=O)=O)[C@H](Cc2ccccc2)O1 [Example 122, ((4S,5S)-5-benzyl-2,2-dimethyl-1,3-dioxolan-4-yl)methyl sulfamate] | 46.9

same assay, conditions: po; mouse forced swim test, 60 mg/kg, 1 hr; read-out: mFST protection % at administration dose

Row | Structure (SMILES) | inhibition in vivo at 60 mg/kg [%]
8 | NS(=O)(=O)OC[C@@H]1OC(=O)O[C@H]1c1ccccc1[N+](=O)[O-] [Example 90, ((4S,5S)-5-(2-nitrophenyl)-2-oxo-1,3-dioxolan-4-yl)methyl sulfamate] | 60.4
9 | NS(=O)(=O)OC[C@@H]1OC2(CCCC2)O[C@H]1Cc1ccccc1Cl [Example 150, ((2S,3S)-3-(2-chlorobenzyl)-1,4-dioxaspiro[4,4]nonan-2-yl)methyl sulfamate] | 56.9
10 | CC1(C)O[C@@H](CCOS(N)(=O)=O)[C@H](Cc2ccccc2)O1 [Example 114, 2-((4S,5S)-5-benzyl-2,2-dimethyl-1,3-dioxolan-4-yl)ethyl sulfamate] | 36.4
11 | CC1(C)O[C@@H](COS(N)(=O)=O)[C@H](c2sc(Cl)nc2Cl)O1 [Example 164, ((4S,5R)-5-(2,4-dichlorothiazol-5-yl)-2,2-dimethyl-1,3-dioxolan-4-yl)methyl sulfamate] | 44.9
12 | NS(=O)(=O)OCC[C@@H]1OC2(CCCC2)O[C@H]1Cc1ccccc1 [Example 118, 2-((2S,3S)-3-benzyl-1,4-dioxaspiro[4,4]nonan-2-yl)ethyl sulfamate] | 35.3
13 | CC1(C)O[C@@H](COS(N)(=O)=O)[C@H](c2cnc(Cl)s2)O1 [Example 166, ((4R,5S)-5-(2-chlorothiazol-5-yl)-2,2-dimethyl-1,3-dioxolan-4-yl)methyl-sulfamate] | 53.3
14 | NS(=O)(=O)OC[C@@H]1OC2(CCCC2)O[C@H]1c1ccccc1Cl [Example 10, ((2S,3S)-3-(2-chlorophenyl)-1,4-dioxaspiro[4,4]nonan-2-yl)methyl sulfamate] | 19
15 | NS(=O)(=O)OC[C@@H]1OC2(CCCC2)O[C@H]1Cc1ccccc1 [Example 126, ((2S,3S)-3-benzyl-1,4-dioxaspiro[4,4]nonan-2-yl)methyl sulfamate] | 43
16 | Nc1ccccc1[C@@H]1OC2(CCCC2)O[C@H]1COS(N)(=O)=O [Example 72, ((2S,3S)-3-(2-aminophenyl)-1,4-dioxaspiro[4,4]nonan-2-yl)methyl sulfamate] | 54.3
17 | NS(=O)(=O)OCC[C@@H]1OC2(CCCC2)O[C@H]1Cc1ccccc1Cl [Example 142, 2-((2S,3S)-3-(2-chlorobenzyl)-1,4-dioxaspiro[4,4]nonan-2-yl)ethyl sulfamate] | 45.9
18 | CC1(C)O[C@@H](CCOS(N)(=O)=O)[C@H](c2ccccc2Cl)O1 [Example 154, 2-((4S,5S)-5-(2-chlorophenyl)-2,2-dimethyl-1,3-dioxolan-4-yl)ethyl sulfamate] | 38.9
19 | CC1(C)O[C@@H](COS(N)(=O)=O)[C@H](c2ccccc2)O1 [Example 106, ((4S,5S)-5-phenyl-2,2-dimethyl-1,3-dioxolan-4-yl)methyl sulfamate] | 24.5
20 | CC1(C)O[C@@H](COS(N)(=O)=O)[C@H](Cc2ccccc2Cl)O1 [Example 146, ((4S,5S)-5-(2-chlorobenzyl)-2,2-dimethyl-1,3-dioxolan-4-yl)methyl sulfamate] | 65.1
21 | CC1(C)O[C@@H](CCOS(N)(=O)=O)[C@H](Cc2ccccc2Cl)O1 [Example 138, 2-((4S,5S)-5-(2-chlorobenzyll)-2,2-dimethyl-1,3-dioxolan-4-yl)ethyl sulfamate] | 60.2
22 | NS(=O)(=O)OC[C@@H]1OC2(CCCC2)O[C@H]1c1ccccc1 [Example 110, ((2S,3S)-3-phenyl-1,4-dioxaspiro[4,4]nonan-2-yl)methyl sulfamate] | 39.3
